Results taken from patent publication US11980645B2, “Bile acids and use in disease treatment” (The Regents of the University of California, priority 2019, dated 2024).

What was measured:
[1] = test system: FXR effector genes Fgf15, Shp, Cyp7a1, Cyp8b1; assay: Bile acid gavage of mice, RT-qPCR of downstream FXR effector genes in ileum and liver; details: for Fgf15 expression in the intestine, increase / Shp expression in the intestine, increase: oral gavage 500 mg/kg in corn oil
Description: The gene expression of Fgf15 and Shp in the ileum and Shp, Cyp8b1 and Cyp7a1 in the liver of mice gavaged with bile acids of interest were analyzed using quantitative reverse transcriptase-PCR analysis. The expression levels were normalized to the cellular housekeeping gene ribosomal phosphoprotein PO (36B4).
Bile acid Gavage of Mice. Eight-week-old Male C57BL/6J mice (Jackson Laboratory) were acclimated for 14 days and housed in groups of two throughout the duration of the experiment to mitigate cage effects. Mice were then dosed 2 times (24 hour) or 4 times (72 hour) (t=0 hr, t=24 hr, t=48 hr, t=72 hr) by oral gavage with either a mock control of corn oil without bile acids, or corn oil infused Tyr-chol (500 mg/kg body weight), Leu-chol (500 mg/kg body weight), cholic acid (500 mg/kg body weight) or the control FXR agonist GW4064 (10 mg/kg body weight). Starting 3 hours after the last gavage (t=75 hr, 72 hour treatment or t=25, 24 hour treatment), mice were euthanized by CO2 asphyxiation and samples were collected within a 6 hour period and snap frozen in a liquid nitrogen bath and stored at −80° C. prior to analysis. […] Ileum and liver samples were used for qPCR.
RT-qPCR Analysis of Downstream FXR Gene Expression. Mouse liver and ileum segments were directly homogenized in TRIzol and total RNA isolated. cDNA was synthesized from 1 μg of DNase-treated total RNA using Bio-Rad iScript Reverse Transcription supermix (#1708841) and mRNA levels of Fgf15, Shp, Cyp7b1 and Cyp7a1 were quantified by quantitative PCR with Advanced Universal SyBr Green Supermix (Bio-Rad, cat #725271). All samples were run in technical triplicates and relative mRNA levels were calculated by using the standard curve methodology and normalized to 36B4.

[2] = LC-MS/MS screen of murine portal and peripheral blood for conjugated bile acids
Description: Portal and peripheral blood was collected from additional SPF (n=4) and GF (n=6) mice and screened for the presence of conjugated bile acids.
Bile Acids in Murine Portal and Peripheral Blood. An additional 4 SPF and 6 GF female mice of the same strain analyzed for the initial study on the microbial metabolome were raised for analysis of blood. Portal blood and peripheral blood were sampled as described in the methods section and analyzed with the same LC-MS/MS protocols as the original animals.

[3] = test system: human fecal batch culture; assay: Incubation with actively growing human fecal batch culture (metabolism by microbiota); assay type: in vitro ADME; details: 10 μM bile acid, 24 h
Description: FIGS. […]. Distribution and metabolism of novel conjugated bile acids. FIG. 9a) Molecular network of SPF duodenum MS/MS data and synthesized amino acid conjugated bile acids. LC-MS/MS data from synthetic standards was networked with murine samples and spectral matching through molecular networking is indicated by node greyscale. Mirror plots showing the alignment between the murine and standards are shown. Nodes shaped as arrowheads had hits in the GNPS libraries and node size is scaled to the spectral count. Tauro=Taurocholic acid. These experiments were repeated twice. FIG. 9b) 3D-molecular cartography of the mean abundance of the newly discovered conjugates mapped onto a 3D-rendered model of the murine GI tract as a heatmap according to the greyscale. Organs are labeled as described in FIG. 1. FIG. 9c) Molecular network of GF and SPF portal and peripheral blood conjugated bile acids. Nodes are colored by source as either GF and SPF or portal/peripheral blood. Arrowhead nodes represent known compounds in the GNPS spectral database, circular nodes represent unknowns. The annotations are through spectral matches against reference libraries (level 2 or 3^3). FIG. 9d) Mean area under curve abundance and standard deviations of bile acids of interest during incubation with an actively growing batch human fecal culture for 24 h (n=3). FIG. 9e) Molecular network of novel conjugated bile acids after incubation in a human fecal batch culture experiment. Each node represents a unique MS/MS spectrum and arrowhead shaped nodes indicate known spectra in the GNPS database. The nodes are greyscale by their retention time according to the legend and the mass shift between nodes are mapped onto the edge representing the cosine connection between related spectra. The H2 mass shift representing oxidation of the novel conjugates is shown. FIG. 9f) Mean ion intensity and standard deviations of the dehydrogenated forms of Phe-chol, Tyr-chol and Leu-chol through the 24 h batch fecal culture incubation (n=3).
Fecal Culture Bioreactor Inoculation. A 4 g stool sample was resuspended in 40 mL modified yeast casitone fatty acids media (mYCFA, DMSZ recipe) with 0.25% Antifoam B Silicon Emulsion (Baker) in a vinyl anaerobic chamber (Coy). The resuspension was centrifuged at 500× g for 5 minutes to pellet solids. The supernatant was decanted through a sterile […] filter. The filtrate was centrifuged at 4450× g for 10 minutes to pellet cells. The supernatant was discarded, and the pellet was resuspended in 40 mL mYCFA. The resuspension was drawn into a 60 mL syringe and injected into a 500 mL vessel of an Infors Multifors 2 bioreactor. The chemostat process parameters was modified from a previous process developed in^26. The chemostat volume parameters were; 400 mL culture volume, 24-hour retention rate, 50 mL/min nitrogen, stirrer at 250 rpm, and 37° C. temperature. […] 15 μL stocks were added to 12 mL mYCFA. After 11 days of continuous culturing, 24 mL bioreactor culture was withdrawn and transferred to the anaerobic chamber. 3 mL culture was added to the 12 mL mYCFA aliquots with the bile acids, for a total volume of 15 mL and final concentration of 10 μM bile acid. The cultures were vortexed and split into three 5 mL aliquots. At time 0 (blanks for each bile acid), 1, 3, 6, 12 and 24 hours, 0.1 mL aliquots were removed from the samples for metabolomics and 16S rRNA gene sequencing. […]

[4] = target: T1, human FXR (Homo sapiens, UniProt Q96RI1); assay: FXR luciferase reporter assay in HEK-293 cells; details: for human FXR agonism: HEK-293 luciferase reporter
T1 sequence (Q96RI1 1-486): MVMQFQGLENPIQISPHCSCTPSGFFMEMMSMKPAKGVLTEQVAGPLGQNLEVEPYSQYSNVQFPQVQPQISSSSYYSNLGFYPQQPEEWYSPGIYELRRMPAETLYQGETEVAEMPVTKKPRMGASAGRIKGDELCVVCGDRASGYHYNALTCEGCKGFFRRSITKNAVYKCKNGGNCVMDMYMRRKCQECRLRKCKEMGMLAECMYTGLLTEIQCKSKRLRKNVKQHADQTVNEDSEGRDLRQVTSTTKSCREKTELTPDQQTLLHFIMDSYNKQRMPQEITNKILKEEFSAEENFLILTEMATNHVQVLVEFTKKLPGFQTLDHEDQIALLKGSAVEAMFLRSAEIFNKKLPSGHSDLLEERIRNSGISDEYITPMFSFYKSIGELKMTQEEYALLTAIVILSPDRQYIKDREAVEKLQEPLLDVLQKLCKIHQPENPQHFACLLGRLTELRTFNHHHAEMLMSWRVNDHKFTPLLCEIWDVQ
T1 sequence (P19793 1-462 partner): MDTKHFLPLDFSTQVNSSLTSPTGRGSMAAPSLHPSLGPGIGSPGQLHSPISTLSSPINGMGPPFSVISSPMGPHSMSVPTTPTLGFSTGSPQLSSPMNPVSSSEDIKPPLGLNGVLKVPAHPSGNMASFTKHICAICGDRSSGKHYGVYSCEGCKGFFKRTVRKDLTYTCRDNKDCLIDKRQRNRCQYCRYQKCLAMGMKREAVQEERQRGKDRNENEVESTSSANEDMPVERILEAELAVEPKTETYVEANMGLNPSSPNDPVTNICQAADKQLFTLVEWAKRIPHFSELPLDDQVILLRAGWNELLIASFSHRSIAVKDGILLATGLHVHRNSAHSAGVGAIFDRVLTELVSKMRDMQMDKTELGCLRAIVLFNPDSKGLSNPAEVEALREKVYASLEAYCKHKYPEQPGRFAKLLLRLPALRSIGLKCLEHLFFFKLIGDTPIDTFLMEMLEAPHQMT
Description: To assess the ability of the novel bile acids from the invention to affect human FXR signaling, a luciferase reporter assay was established in HEK-293 embryonic kidney cells^39.
Human kidney cell line HeK-293 was obtained from American Type Culture Collection (ATCC CRL-1573, tested for Mycoplasma contamination every 6 months). These cells were chosen due to their high transfectability and low FXR expression which allows for a robust signal to noise ratio. These 293 cells were cultured in Dulbecco's modified Eagle's medium/F-12 (DMEM) supplemented with 10% (V/V heat-inactivated fetal calf serum (FBS) and 100 units/ml penicillin G and 100 μg/ml streptomycin. 10,000 cells were seeded per well in 96-well plates one day before transfection of plasmids. DNA was transiently transfected by Lipofectamine 2000 and Opti-MDM in fasting state. The ratio of plasmid used in per well were 50 ng of FXR response element (FXRE)/luciferase reporter plasmid, 10 ng of pCMV-3flag-FXR (human) plasmid, 10 ng of pCMV-RXR (human) plasmid, and 5 ng of Renilla luciferase reporter plasmid as internal standard for transfection efficiency. […] Cells were harvested 24 hrs later and lysed with passive lysis buffer (Promega). Luciferase activities were measured by the Dual-Luciferase Reporter (DLR™) Assay kit and read by Luminometer (Perkin Elmer). The final Luciferase activities were normalized by dividing the relative light units by Renilla luciferase activity. Statistical analyses were performed using Prism software. Each dosage was done in 12 replicates.

Compound	liver Cyp7a1 expression vs corn oil control (significance) ([1]; gavage, 24 hrs)	liver Cyp8b1 expression vs corn oil control (significance) ([1]; gavage, 24 hrs)	ileum Fgf15 signaling vs corn oil control (significance) ([1]; gavage, 72 hrs)	ileum Shp signaling vs corn oil control (significance) ([1]; gavage, 72 hrs)	liver Cyp7a1 expression vs corn oil control (significance) ([1]; gavage, 72 hrs)	liver Cyp8b1 expression vs corn oil control (significance) ([1]; gavage, 72 hrs)	presence in portal and peripheral blood ([2]; mouse, in vivo)	deconjugation by the microbiota [3]	further results
C[C@H](CCC(=O)O)[C@H]1CC[C@H]2[C@@H]3[C@H](O)C[C@@H]4C[C@H](O)CC[C@]4(C)[C@H]3C[C@H](O)[C@]12C [cholic acid, reference compound]	significantly reduced	significantly reduced	significantly increased	significantly increased	significantly reduced	significantly reduced			ileum Shp expression vs corn oil control (significance) ([1]; gavage, 24 hr): significance was also reached
C[C@H](CCC(=O)N[C@@H](Cc1ccc(O)cc1)C(=O)O)[C@H]1CC[C@H]2[C@@H]3[C@H](O)C[C@@H]4C[C@H](O)CC[C@]4(C)[C@H]3C[C@H](O)[C@]12C [Tyr-chol, tyrosocholic acid]	significantly reduced	significantly reduced	significantly increased	significantly increased	significantly reduced	significantly reduced	not found	not deconjugated	ileum Fgf15 expression vs corn oil control (significance) ([1]; gavage, 24 hr): significantly elevated; Shp expression in the liver ([1]; gavage, 24 hrs): did not change detectably; liver Cyp7a1 expression ([1]; gavage, 24 hrs): 9 % of control; liver Cyp8b1 expression ([1]; gavage, 24 hrs): 69 % of control; Shp expression in the liver, increase ([1]; gavage, 72 hrs): 2.3 fold; liver Shp expression vs corn oil control (significance) ([1]; gavage, 72 hrs): significantly elevated; liver Cyp7a1 expression ([1]; gavage, 72 hrs (4 gavages)): 8 % of control; liver Cyp8b1 expression ([1]; gavage, 72 hrs (4 gavages)): 2 % of control; Fgf15 expression in the intestine, increase ([1]; 24 hrs): 12.2 fold; Shp expression in the intestine, increase ([1]; 24 hrs): 13.3 fold; Fgf15 expression in the intestine, increase ([1]; 72 hrs (4 gavages)): 6.2 fold; Shp expression in the intestine, increase ([1]; 72 hrs (4 gavages)): 9.3 fold; EC50 [4]: 0.14 µM; human FXR agonism [4]: strong human FXR agonists
CC(C)C[C@H](NC(=O)CC[C@@H](C)[C@H]1CC[C@H]2[C@@H]3[C@H](O)C[C@@H]4C[C@H](O)CC[C@]4(C)[C@H]3C[C@H](O)[C@]12C)C(=O)O [Leu-chol, leucocholic acid]	significantly reduced	significantly reduced	significantly increased	significantly increased	significantly reduced	significantly reduced	not found	not deconjugated	liver Shp expression vs corn oil control (significance) ([1]; gavage, 72 hrs): significantly elevated
CC(C)c1onc(-c2c(Cl)cccc2Cl)c1COc1ccc(/C=C/c2cccc(C(=O)O)c2)c(Cl)c1 [GW4064, reference compound]									ileum Shp expression vs corn oil control (significance) ([1]; gavage, 24 hr): significance was also reached
C[C@H](CCC(=O)N[C@@H](Cc1ccccc1)C(=O)O)[C@H]1CC[C@H]2[C@@H]3[C@H](O)C[C@@H]4C[C@H](O)CC[C@]4(C)[C@H]3C[C@H](O)[C@]12C [Phe-chol, phenylalanocholic acid]							not found	not deconjugated	EC50 [4]: 4.5 µM; human FXR agonism [4]: strong human FXR agonists
C[C@H](CCC(=O)NCC(=O)O)[C@H]1CC[C@H]2[C@@H]3[C@H](O)C[C@@H]4C[C@H](O)CC[C@]4(C)[C@H]3C[C@H](O)[C@]12C [GCA, glycocholic acid, reference compound]							present	deconjugation readily occurred	oxidation of the cholate core by microbial enzymes [3]: no concurrent oxidation
C[C@H](CCC(=O)NCCS(=O)(=O)O)[C@H]1CC[C@H]2[C@@H]3[C@H](O)C[C@@H]4C[C@H](O)CC[C@]4(C)[C@H]3C[C@H](O)[C@]12C [TCA, Taurocholic acid, reference compound]									presence in portal and peripheral blood ([2]; SPF (n=4) and GF (n=6) mice, endogenous): present
